Results on five compounds are retold here after patent US8835652B2, “Delta crystalline form of the arginine salt of perindopril, a process for its preparation, and pharmaceutical compositions containing it” (Les Laboratoires Servier, priority 2012, dated 2014).

Each structure is given as a SMILES string. Structures can show the parent of a compound that is named as a salt.

The nature of the series: Thermal stability at 110° C. in an open flask (HPLC purity). The class given is physicochemical. How it is done:
The thermal stability of the delta form at 110° C. in an open flask was compared to that of forms from the prior art.

[1] abbreviates: 76 hours at 110° C., open flask.
Where [2] appears, read: t = 0, before heating (baseline of the thermal stability test).

Turning to `CCC[C@H](N[C@@H](C)C(=O)N1[C@H](C(=O)O)C[C@@H]2CCCC[C@@H]21)C(=O)OCC` [perindopril L-arginine salt], under “110° C., open flask”, the “Thermal stability compared to the other known forms” value is “improved thermal stability”. Moreover, the “HPLC purity (%)” value reads like this: under setting [1], 99.5%; under setting [2], 99.7%.
For the compound `CCC[C@H](N[C@@H](C)C(=O)N1[C@H](C(=O)O)C[C@@H]2CCCC[C@@H]21)C(=O)OCC.N=C(N)NCCC[C@H](N)C(=O)O` [β form according to EP 2 016 051], the “HPLC purity (%)” value is, setting by setting: under setting [1], 98.3%; under setting [2], 99.6%.
Consider `CCC[C@H](N[C@@H](C)C(=O)N1[C@H](C(=O)O)C[C@@H]2CCCC[C@@H]21)C(=O)OCC.N=C(N)NCCC[C@H](N)C(=O)O` [α form according to EP 1 989 182], for which the “HPLC purity (%)” value under setting [1] was determined as 98.8% and the “HPLC purity (%)” value under setting [2] came to 99.8%.
The matching figures for `CCC[C@H](N[C@@H](C)C(=O)N1[C@H](C(=O)O)C[C@@H]2CCCC[C@@H]21)C(=O)OCC.N=C(N)NCCC[C@H](N)C(=O)O` [Form obtained according to the process of SI 23001]: 86.9% and 99.1%.
The corresponding values for `CCC[C@H](N[C@@H](C)C(=O)N1[C@H](C(=O)O)C[C@@H]2CCCC[C@@H]21)C(=O)OCC.N=C(N)NCCC[C@H](N)C(=O)O` [γ form according to WO 2009/157018] are 93.4% and 99.7%.
